Earlier results as cited in US20060167069A1, “Pharmaceutical composition of metaxalone with enhanced oral bioavailability” (Sun Pharmaceutical Industries Ltd., priority 2002, published 2006).

Details: prior art statement

aqueous solubility: low aqueous solubility
SMILES: Cc1cc(C)cc(OCC2CNC(=O)O2)c1 (stereo not shown) [Metaxalone, 5-(3,5-dimethylphenoxymethyl)-2-oxazolidinone]
